# Laboratory results as given in patent US10188754B2, “Compositions and methods for chemical exchange saturation transfer (CEST) based magnetic resonance imaging (MRI)” (THE JOHNS HOPKINS UNIVERSITY, priority 2013, dated 2019).
# Assay: not given
# Format: physicochemical
# Conditions: Table 2; 10 mM, pH 7.3-7.4, tsat = 3 sec, ω1 = 3.6 μT, 37° C.
row,Structure (SMILES),Signal (ppm)
1,O=C(O)c1ccc(O)cc1O [Compound 16],9.5 ppm
2,"O=C(O)c1ccc([N+](=O)[O-])cc1O [Compound 19, 2-hydroxy-4-nitrobenzoic acid]",9.5 ppm
3,"O=C(O)c1cc([N+](=O)[O-])cc([N+](=O)[O-])c1O [Compound 15, 3,5-Dinitrosalicylic acid]",None
4,"O=C(O)c1cc([N+](=O)[O-])ccc1O [Compound 14, 5-nitrosalicylic acid]",10.3 ppm

# Same assay, conditions: Table 3; 10 mM, pH 7.3-7.4, tsat = 3 sec, ω1 = 3.6 μT, 37° C.
row,Signal (ppm),Structure (SMILES)
1,9.5 ppm,"O=C(O)c1c(O)ccc2ccccc12 [Compound 20, 2-hydroxy-l-naphthoic acid]"

# Same assay, conditions: Table 4; 10 mM, pH 7.3-7.4, tsat = 3 sec, ω1 = 3.6 μT, 37° C.
row,Signal (ppm),Structure (SMILES)
1,9.5 ppm,"Cc1cccc(C(=O)O)c1O [Compound 23, 3-Methylsalicylic acid]"
2,9.3 ppm,"CC(C)(C)c1cc(C(=O)O)c(O)c(C(C)(C)C)c1 [Compound 24, 3,5-di-tert-butylsalicylic acid]"
3,10.3 ppm,O=C(O)c1cc(Cl)cc(Cl)c1O [Compound 26]
4,10.5 ppm,"O=C(O)c1cc(Br)cc(Br)c1O [Compound 27, 3,5-Dibromosalicylic acid]"
5,10.5 ppm,"O=C(O)c1ccc2ccccc2c1O [Compound 29, 1-Hydroxy-2-naphthoic acid]"
6,12.0 ppm,"O=C(O)c1cccc([N+](=O)[O-])c1O [Compound 36, 3-nitrosalicylic acid]"
7,10.5 ppm,"O=Cc1cccc(C(=O)O)c1O [Compound 34, 3-Formylsalicylic acid]"
8,10.3 ppm,"O=C(O)c1ccc2cccnc2c1O [Compound 30, 8-hydroxy-7-quinolinecarboxylic acid]"
9,9.5 ppm,"O=C(O)c1cccc(C(=O)O)c1O [Compound 35, 2-hydroxyisophthalic acid]"
10,9.5 ppm,O=C(O)c1cccc(F)c1O [Compound 25]
11,9.0 ppm,"O=C(O)c1cccc(O)c1O [Compound 31, 2,3-dihydroxybenzoic acid]"

# Same assay, conditions: Table 5; 10 mM, pH 7.3-7.4, tsat = 3 sec, ω1 = 3.6 μT, 37° C.
row,Signal (ppm),Structure (SMILES)
1,4.8 ppm,O=C(O)c1ccccc1Nc1ccccc1 [Compound 37]
2,7.8 ppm,Cc1ccc(S(=O)(=O)Nc2ccccc2C(=O)O)cc1 [Compound 40]
3,7.3 ppm,CS(=O)(=O)Nc1ccccc1C(=O)O [Compound 39]

# Same assay, conditions: Table 6; 10 mM, pH 7.3-7.4, tsat = 3 sec, ω1 = 3.6 μT, 37° C.
row,Signal (ppm),Structure (SMILES)
1,8.3 ppm,O=C(O)c1cc(O)c(C(=O)O)cc1O [Compound 42]

# Assay: not given
# Conditions: Table 2; 10 mM, pH 7.3-7.4, 37° C.
row,Structure (SMILES),kex
1,O=C(O)c1ccc(O)cc1O [Compound 16],460 s⁻¹
2,"O=C(O)c1ccc([N+](=O)[O-])cc1O [Compound 19, 2-hydroxy-4-nitrobenzoic acid]",1500 s⁻¹

# Same assay, conditions: Table 3; 10 mM, pH 7.3-7.4, 37° C.
row,kex,Structure (SMILES)
1,4400 s⁻¹,"O=C(O)c1c(O)ccc2ccccc12 [Compound 20, 2-hydroxy-l-naphthoic acid]"

# Same assay, conditions: Table 4; 10 mM, pH 7.3-7.4, 37° C.
row,kex,Structure (SMILES)
1,250 s⁻¹,"Cc1cccc(C(=O)O)c1O [Compound 23, 3-Methylsalicylic acid]"
2,22 s⁻¹,"CC(C)(C)c1cc(C(=O)O)c(O)c(C(C)(C)C)c1 [Compound 24, 3,5-di-tert-butylsalicylic acid]"
3,1070 s⁻¹,O=C(O)c1cc(Cl)cc(Cl)c1O [Compound 26]
4,580 s⁻¹,"O=C(O)c1cc(Br)cc(Br)c1O [Compound 27, 3,5-Dibromosalicylic acid]"
5,220 s⁻¹,"O=C(O)c1ccc2ccccc2c1O [Compound 29, 1-Hydroxy-2-naphthoic acid]"
6,510 s⁻¹,"O=Cc1cccc(C(=O)O)c1O [Compound 34, 3-Formylsalicylic acid]"
7,750 s⁻¹,O=C(O)c1cccc(F)c1O [Compound 25]

# Same assay, conditions: Table 5; 10 mM, pH 7.3-7.4, 37° C.
row,kex,Structure (SMILES)
1,670 s⁻¹,O=C(O)c1ccccc1Nc1ccccc1 [Compound 37]
2,440 s⁻¹,Cc1ccc(S(=O)(=O)Nc2ccccc2C(=O)O)cc1 [Compound 40]
3,470 s⁻¹,CS(=O)(=O)Nc1ccccc1C(=O)O [Compound 39]

# Same assay, conditions: Table 6; 10 mM, pH 7.3-7.4, 37° C.
row,kex,Structure (SMILES)
1,990 s⁻¹,O=C(O)c1cc(O)c(C(=O)O)cc1O [Compound 42]

# Assay: Screening of beta-hydroxy carboxylate analogs for CEST contrast (Table 4A)
# Conditions: Concentration 5 mM
row,Signal (ppm),Structure (SMILES)
1,4.8 ppm,Cc1ccc(Cl)c(Nc2ccccc2C(=O)O)c1Cl [Entry 51]
2,None,Cc1cccc(Nc2ccccc2C(=O)O)c1Cl [Entry 53]
3,None,Cc1cccc(Nc2ccccc2C(=O)O)c1C [Entry 52]

# Same assay, conditions: Concentration 10 mM
Structure (SMILES),Signal (ppm),kex
Oc1ccccc1-c1nnn[nH]1 [Entry 13],None,–
COC(=O)c1ccccc1O [Entry 4],None,–
O=Cc1cc(C(=O)O)ccc1O [Entry 9],None,–
CS(=O)(=O)Nc1ccccc1C(=O)O [Entry 58],7.3 ppm,470 s⁻¹
COC(=O)c1ccc(O)c([N+](=O)[O-])c1 [Entry 7],None,–
NC(Cc1cc(I)c(O)c(I)c1)C(=O)O (stereo not shown) [Entry 14],None,–
Cc1ccc(S(=O)(=O)Nc2ccccc2C(=O)O)cc1 [Entry 62],7.8 ppm,440 s⁻¹
O=C(O)c1cc2ccccc2c(Cc2c(O)c(C(=O)O)cc3ccccc23)c1O [Entry 44],9.5 ppm,130 s⁻¹
Nc1ccc(C(=O)O)c(O)c1 [Entry 22],9.5 ppm,384 s⁻¹
CS(=O)(=O)Nc1ccc(N)cc1C(=O)O [Entry 61],6.3 ppm,550 s⁻¹
O=C(O)c1cc(O)c(C(=O)O)cc1O [Entry 42],8.3 ppm,990 s⁻¹
COC(=O)c1cc([N+](=O)[O-])ccc1O [Entry 5],None,–
O=C(O)c1cc([N+](=O)[O-])cc([N+](=O)[O-])c1O [Entry 20],None,–
O=C(O)c1ccc(O)c(/C=N/CC/N=C/c2cc(C(=O)O)ccc2O)c1 [Entry 11],7.8 ppm,15400 s⁻¹
O=C(O)CNC(=O)c1ccccc1O [Entry 3],None,–
O=C(O)c1ccc(O)cc1O [Entry 21],9.5 ppm,462 s⁻¹
O=C(O)c1ccccc1NC(=O)C(F)(F)F [Entry 57],9.3 ppm,190 s⁻¹
O/N=C/c1ccccc1O [Entry 10],None,–
[O-][n+]1cccc2cccc(O)c21 [Entry 8],9.5 ppm,32 s⁻¹
O=C(O)c1ccccc1Nc1ccccc1 [Entry 49],4.8 ppm,674 s⁻¹
O=[N+]([O-])c1ccccc1O [Entry 6],None,–
O=C(O)c1ccccc1Nc1cccc(C(F)(F)F)c1 [Entry 50],4.8 ppm,1000 s⁻¹
O=C(O)c1cc(C(=O)O)c(O)cc1O [Entry 43],9.8 ppm,460 s⁻¹

# Next, values leading:
Signal (ppm),kex,Structure (SMILES)
9.5 ppm,4400 s⁻¹,O=C(O)c1c(O)ccc2ccccc12 [Entry 25]
9.0 ppm,410 s⁻¹,Nc1cccc(C(=O)O)c1O [Entry 38]
10.8 ppm,310 s⁻¹,O=C(O)c1cc(I)cc(I)c1O [Entry 33]
10.5 ppm,220 s⁻¹,O=C(O)c1ccc2ccccc2c1O [Entry 34]
8.5 ppm,400 s⁻¹,O=C(O)c1cc(O)ccc1O [Entry 15]
12.0 ppm,1430 s⁻¹,O=C(O)c1cccc([N+](=O)[O-])c1O [Entry 41]
9.0 ppm,4900 s⁻¹,COc1cccc(O)c1C(=O)O [Entry 26]
9.3 ppm,30 s⁻¹,O=C(O)c1c(O)cccc1O [Entry 27]
8.5 ppm,380 s⁻¹,Nc1ccc(O)c(C(=O)O)c1 [Entry 16]
9.0 ppm,2000 s⁻¹,O=C(O)c1cccc(O)c1O [Entry 36]
9.5 ppm,1500 s⁻¹,O=C(O)c1ccc([N+](=O)[O-])cc1O [Entry 24]
9.3 ppm,420 s⁻¹,O=C(O)c1ccc(C(=O)O)c(O)c1 [Entry 23]
9.3 ppm,480 s⁻¹,COc1cccc(C(=O)O)c1O [Entry 37]
None,–,O=C(O)c1cccnc1Nc1cccc(C(F)(F)F)c1 [Entry 54]
10.3 ppm,1070 s⁻¹,O=C(O)c1cc(Cl)cc(Cl)c1O [Entry 31]
9.0 ppm,290 s⁻¹,O=C(O)c1cc(Cl)ccc1O [Entry 17]
9.5 ppm,750 s⁻¹,O=C(O)c1cccc(F)c1O [Entry 30]
9.3 ppm,400 s⁻¹,O=C(O)c1ccccc1O [Entry 1]
9.5 ppm,6680 s⁻¹,O=C(O)c1cccc(C(=O)O)c1O [Entry 40]
10.3 ppm,5660 s⁻¹,O=C(O)c1cc([N+](=O)[O-])ccc1O [Entry 19]
10.5 ppm,510 s⁻¹,O=Cc1cccc(C(=O)O)c1O [Entry 39]
10.3 ppm,1530 s⁻¹,O=C(O)c1ccc2cccnc2c1O [Entry 35]
9.5 ppm,250 s⁻¹,Cc1cccc(C(=O)O)c1O [Entry 28]
10.5 ppm,580 s⁻¹,O=C(O)c1cc(Br)cc(Br)c1O [Entry 32]

# Same assay, conditions: Concentration 20 mM
Signal (ppm),kex,Structure (SMILES)
9.3 ppm,22 s⁻¹,CC(C)(C)c1cc(C(=O)O)c(O)c(C(C)(C)C)c1 [Entry 29]

# Same assay, conditions: Concentration 25 mM
Structure (SMILES),Signal (ppm),kex
CNc1ccccc1C(=O)O [Entry 48],None,–
O=C(O)c1ccccc1NS(=O)(=O)C(F)(F)F [Entry 63],None,–
CS(=O)(=O)Nc1ccc(Cl)cc1C(=O)O [Entry 59],7.3 ppm,1000 s⁻¹
Cc1ccc(NS(C)(=O)=O)c(C(=O)O)c1 [Entry 60],7.0 ppm,500 s⁻¹
O=C(O)c1ccccc1N/N=C\c1ccccc1 [Entry 64],None,–
Nc1ccccc1C(=O)O [Entry 47],None,–
CC(C)(C)OC(=O)Nc1ccccc1C(=O)O [Entry 56],None,–

# Now from value to molecule:
Signal (ppm),kex,Structure (SMILES)
9.3 ppm,650 s⁻¹,O=C(O)c1ccc(-c2ccc(F)cc2F)cc1O [Entry 45]
None,–,CC(=O)Nc1ccccc1C(=O)O [Entry 55]
9.6 ppm,1000 s⁻¹,O=C(O)c1cc(/N=N\c2ccc(S(=O)(=O)Nc3ccccn3)cc2)ccc1O [Entry 46]
